From US20080161324A1, “Compositions and methods for treatment of viral diseases” (priority 2006, published 2008)
Where a name gives a salt, the structure may show the parent alone. Read-outs that look alike come from different tables or passages of the source. Marks after values point to notes of the source that are not given here.

How the values were obtained:
[1] = test system: Huh7 cells expressing a subgenomic RNA replicon of Con1 (genotype 1b) sequence origin; assay: microbe, parasite or virus in culture; assay type: cell-based, HCV
[2] = test system: HER1-2; conditions: selective HER1 inhibitor (vs. HER1-2); cited from earlier work
[3] = in words; cited from earlier work
[4] = Hepatitis C virus, Huh-7, 48 h; read-out: IC50
[5] = Table 1; inhibition of luciferase activity, 48 hours
[6] = Table 1; inhibition of luciferase activity, 48 hours; read-out: IC50
[7] = Hepatitis C virus, Huh-7, 48 h; read-out: IC25 (values noted with an asterisk)

CC(=O)Nc1ccccc1OCCCCCOCC(=O)Nc1ccccc1 [2′,2″-(Pentamethylenedioxy)diacetanilide]
IC50 [1, 4]: 3.14 µM

CC(=O)Nc1cccc(OCCCCCOc2cccc(NC(C)=O)c2)c1 [3′,3″-(Pentamethylenedioxy)diacetanilide]
IC25 (values noted with an asterisk) [1, 5]: 9.35*

N#C/C(=C\c1ccc(O)c(O)c1)C(=O)NCc1ccccc1 [AG-490]
IC50 [1, 6]: 5.03 µM

N#C/C(=C\c1ccc(O)c(O)c1)C(=O)Nc1ccccc1 [AG-494]
IC50 [2]: 45 µM

Nc1ncnc2c1ncn2CCOCP(=O)(O)O [Adefovir (e.g., dipivoxil), Adefovir]
IC50 ([1]; Table 3; inhibition of luciferase activity, 48 hours; read-out: IC50): 0.319 µM

Cc1ccc(/N=C/N(C)/C=N/c2ccc(C)cc2C)c(C)c1 [Amitraz]
IC25 [1, 7]: 26.4 µM

CC(=O)OC[C@H]1O[C@@H]([S-])[C@H](OC(C)=O)[C@@H](OC(C)=O)[C@@H]1OC(C)=O.CCP(CC)CC.[Au+] [Auranofin]
solubility [3]: insoluble in water

CC(C)NCC(O)COc1ccc(CCOCC2CC2)cc1 (stereo not drawn) [Betaxolol (e.g., hydrochloride), Betaxolol]
IC25 ([1]; Hepatitis C virus, Huh-7, 48 h, read-out: IC25 (values noted with an asterisk)): 29.4 µM

CCCC(=O)O[C@H]1CN2CC[C@H](O)[C@@H]2[C@@H](O)[C@@H]1O [Celgosivir]
IC25 [1, 7]: 6.25 µM

O=C1[C@H](CC[C@H](O)c2ccc(F)cc2)[C@@H](c2ccc(O)cc2)N1c1ccc(F)cc1 [Ezetimibe]
IC50 [1, 4]: 4.2 µM

Clc1ccc(C(c2ccccc2Cl)C(Cl)Cl)cc1 (stereo not drawn) [Mitotane]
IC25 [1, 7]: 28.1 µM

COc1ccc(C(=O)NCc2cccnc2)cc1C(=O)NCc1cccnc1 [Picotamide]
IC25 [1, 7]: 28.7 µM

CCCCOc1ccc(OCCCN2CCOCC2)cc1 [Pramoxine (e.g., hydrochloride), Pramoxine]
IC25 [1, 7]: 5.17 µM

COc1ccc(CCN(C)CCCC(C#N)(c2ccc(OC)c(OC)c2)C(C)C)cc1OC (stereo not drawn) [R(+)-Verapamil (e.g., hydrochloride), R(+)-Verapamil]
IC50 ([1]; Hepatitis C virus, Huh-7, 48 h): 15.7 µM

CC(C)=CC[C@@H](O)C1=CC(=O)c2c(O)ccc(O)c2C1=O [Shikonin]
IC25 [1, 7]: 26.4 µM

CO[C@H]1C[C@@H]2CC[C@@H](C)[C@@](O)(O2)C(=O)C(=O)N2CCCC[C@H]2C(=O)O[C@H]([C@H](C)C[C@@H]2CC[C@@H](O)[C@H](OC)C2)CC(=O)[C@H](C)/C=C(\C)[C@@H](O)[C@@H](OC)C(=O)[C@H](C)C[C@H](C)/C=C/C=C/C=C/1C [Sirolimus]
IC25 [1, 7]: 0.005 µM

N#C/C(=C\c1ccc(O)c(O)c1)C(N)=S [Tyrphostin 47]
IC25 (values noted with an asterisk) [1, 5]: 18.3*

O=C1CC(=O)c2c(Cl)c(Cl)c(Cl)c(Cl)c21 [UCH-L3 inhibitor]
IC25 (values noted with an asterisk) ([1]; Table 1; inhibition of luciferase activity, 48 hours; in µM): 19.7*

Beta Escin
IC50 [1, 6]: 4.27 µM

Chlorophyllin
IC50 [1, 6]: 1.3 µM

Gramicidin
IC50 [1, 6]: 0.017 µM

Manganese gluconate
IC50 ([1]; read-out: IC50): 24.7 µM

Tunicamycin
IC50 ([1]; Table 2; inhibition of luciferase activity, 48 hours; read-out: IC50): 0.107 µM

Vitamin B12
IC50 [1, 6]: 8.28 µM
